# Assay results as given in patent publication US11439622B2 (OXFORD UNIVERSITY INNOVATION LIMITED, priority 2015, dated 2022).
# Like-named read-outs stand apart in the source and are kept apart here.
# Key:
# Assay type in all cases: biochemical
# [1] = target: VIM-2 (Veronese metallo-β-lactamase-2) (Escherichia coli, UniProt Q5U7L7); test: Enzyme inhibition assay, VIM-2
# Protocol: (§1) The biological activity of the compounds of the present invention was tested using standard assay protocols.^7 The following representative enzymes NDM-1 (New Delhi metallo-β-lactamase-1), IMP-1 (Imipenemase-1) and VIM-2 (Veronese metallo-β-lactamase-2) were selected from different clinically relevant B1 metallo-β-lactamases.
# [2] = target: NDM-1 (New Delhi metallo-β-lactamase-1) (Klebsiella pneumoniae, UniProt C7C422); test: Enzyme inhibition assay, NDM-1
# Protocol: as §1
# IMP-1 (Imipenemase-1) = IMP-1 (Imipenemase-1) (Serratia marcescens, UniProt P52699); test: Enzyme inhibition assay, IMP-1
# Protocol: as §1
# [3] = read-out: pIC50 VIM-2 (converted)
# [4] = read-out: pIC50 NDM-1 (converted)
# [5] = read-out: pIC50 IMP-1 (converted)
# IMP-1 (Imipenemase-1), sequence (P52699 19-246, looked up, species assumed): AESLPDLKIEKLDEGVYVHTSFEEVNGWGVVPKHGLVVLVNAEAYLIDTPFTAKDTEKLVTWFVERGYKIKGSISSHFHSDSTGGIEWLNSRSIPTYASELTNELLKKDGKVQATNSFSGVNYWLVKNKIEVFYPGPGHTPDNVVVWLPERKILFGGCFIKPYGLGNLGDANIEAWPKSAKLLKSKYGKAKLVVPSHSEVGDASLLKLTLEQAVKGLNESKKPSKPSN
# NDM-1 (New Delhi metallo-β-lactamase-1), sequence (C7C422 29-270, looked up, species assumed): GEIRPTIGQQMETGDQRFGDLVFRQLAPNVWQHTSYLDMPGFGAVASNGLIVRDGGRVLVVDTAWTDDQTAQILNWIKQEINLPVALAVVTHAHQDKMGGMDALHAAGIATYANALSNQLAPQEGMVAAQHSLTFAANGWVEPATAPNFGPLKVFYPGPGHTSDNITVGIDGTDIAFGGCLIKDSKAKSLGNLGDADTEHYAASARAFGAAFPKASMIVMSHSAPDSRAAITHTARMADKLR
"IC50 [1, 3] [nM]","IC50 [2, 4] [nM]",IC50 (IMP-1 (Imipenemase-1); [5]) [nM],SMILES,IC50 [1] [nM],IC50 [2] [nM],IC50 (IMP-1 (Imipenemase-1)) [nM]
251,5.01,2000,"Cc1cccc2c(-c3ccc(Cn4cncn4)cc3)c(C(=O)O)[nH]c12 [Example 33, 3-(4-((1H-1,2,4-triazol-1-yl)methyl)phenyl)-7-methyl-1H-indole-2-carboxylic acid]",–,–,–
200,10000,50.1,"Cc1cccc2c(-c3ccc(Cn4cccn4)cc3)c(C(=O)O)[nH]c12 [Example 34, 3-(4-((1H-pyrazol-1-yl)methyl)phenyl)-7-methyl-1H-indole-2-carboxylicacid]",–,–,–
398,31.6,10000,"Cc1cccc2c(-c3ccccc3)c(C(=O)O)[nH]c12 [Example 37, 7-methyl-3-phenyl-1H-indole-2-carboxylate]",–,–,–
251,15.8,1580,"Cc1cccc2c(-c3ccc(-c4ccccc4)cc3)c(C(=O)O)[nH]c12 [Example 40, 3-([1,1′-biphenyl]-4-yl)-7-methyl-1H-indole-2-carboxylic acid]",–,–,–
251,316,1580,"Cc1ccccc1-c1c(C(=O)O)[nH]c2c(C)cccc12 [Example 41, 7-methyl-3-(o-tolyl)-1H-indole-2-carboxylic acid]",–,–,–
251,15.8,10000,"Cc1cccc2c(-c3ccc(Cl)cc3)c(C(=O)O)[nH]c12 [Example 42, 3-(4-chlorophenyl)-7-methyl-1H-indole-2-carboxylic acid]",–,–,–
158,31.6,12600,"Cc1cccc2c(-c3ccc(Cl)c(C(F)(F)F)c3)c(C(=O)O)[nH]c12 [Example 43, 3-(4-chloro-3-(trifluoromethyl)phenyl)-7-methyl-1H-indole-2-carboxylic acid]",–,–,–
200,31.6,3980,"Cc1cccc2c(-c3cccc(C(F)(F)F)c3)c(C(=O)O)[nH]c12 [Example 44, 7-methyl-3-(3-(trifluoromethyl)phenyl)-1H-indole-2-carboxylic acid]",–,–,–
316,31.6,3980,"Cc1cccc2c(-c3ccc(C4CC4)cc3)c(C(=O)O)[nH]c12 [Example 45, 3-(4-cyclopropylphenyl)-7-methyl-1H-indole-2-carboxylic acid]",–,–,–
7940,398,50100,"Cc1ccc2c(-c3ccc(S(N)(=O)=O)cc3)c(C(=O)O)[nH]c2c1 [Example 47, 6-methyl-3-(4-sulfamoylphenyl)-1H-indole-2-carboxylic acid]",–,–,–
3980,631,> 100000,"Cc1ccc2c(-c3ccc(C(N)=O)cc3)c(C(=O)O)[nH]c2c1 [Example 48, 3-(4-carbamoylphenyl)-6-methyl-1H-indole-2-carboxylic acid]",–,–,–
501,31.6,15800,"Cc1cccc2c(-c3ccc(F)cc3)c(C(=O)O)[nH]c12 [Example 49, 3-(4-fluorophenyl)-7-methyl-1H-indole-2-carboxylic acid]",–,–,–
1000,251,25100,"COc1cccc2c(-c3ccc(F)cc3)c(C(=O)O)[nH]c12 [Example 50, 3-(4-fluorophenyl)-7-methoxy-1H-indole-2-carboxylic acid]",–,–,–
316,20,316,"CCCc1cccc2c(-c3ccc(F)cc3)c(C(=O)O)[nH]c12 [Example 52, 3-(4-fluorophenyl)-7-propyl-1H-indole-2-carboxylic acid]",–,–,–
794,251,31600,"O=C(O)c1[nH]c2c(Cl)cccc2c1-c1ccc(F)cc1 [Example 54, 7-chloro-3-(4-fluorophenyl)-1H-indole-2-carboxylic acid]",–,–,–
398,25.1,2000,"COc1ccc2c(-c3ccc(F)cc3)c(C(=O)O)[nH]c2c1C [Example 55, 3-(4-fluorophenyl)-6-methoxy-7-methyl-1H-indole-2-carboxylic acid]",–,–,–
398,31.6,7940,"Cc1ccc2c(-c3ccc(F)cc3)c(C(=O)O)[nH]c2c1C [Example 56, 3-(4-fluorophenyl)-6,7-dimethyl-1H-indole-2-carboxylic acid]",–,–,–
100,79.4,100,"CC(C)(C)c1cccc2c(-c3ccc(F)cc3)c(C(=O)O)[nH]c12 [Example 57, 7-(tert-butyl)-3-(4-fluorophenyl)-1H-indole-2-carboxylic acid]",–,–,–
794,31.6,15800,"Cc1cc(F)cc2c(-c3ccc(F)cc3)c(C(=O)O)[nH]c12 [Example 58, 5-fluoro-3-(4-fluorophenyl)-7-methyl-1H-indole-2-carboxylic acid]",–,–,–
501,126,25100,"Cc1cc(C)c2[nH]c(C(=O)O)c(-c3ccc(F)cc3)c2c1 [Example 59, 3-(4-fluorophenyl)-5,7-dimethyl-1H-indole-2-carboxylic acid]",–,–,–

# More lines, now with the values behind:
SMILES,"IC50 [1, 3] [nM]","IC50 [2, 4] [nM]",IC50 (IMP-1 (Imipenemase-1); [5]) [nM],IC50 [1] [nM],IC50 [2] [nM],IC50 (IMP-1 (Imipenemase-1)) [nM]
"Cc1cccc2c(-c3cccc([N+](=O)[O-])c3)c(C(=O)O)[nH]c12 [Example 15, 7-methyl-3-(3-nitrophenyl)-1H-indole-2-carboxylic acid]",126,25.1,15800,–,–,–
"Cc1cccc2c(-c3cccc(S(C)(=O)=O)c3)c(C(=O)O)[nH]c12 [Example 16, 7-methyl-3-(3-(methylsulfonyl)phenyl)-1H-indole-2-carboxylic acid]",794,50.1,12600,–,–,–
"Cc1cccc2c(-c3cccc(N(C)C)c3)c(C(=O)O)[nH]c12 [Example 17, 3-(3-(dimethylamino)phenyl)-7-methyl-1H-indole-2-carboxylic acid]",501,200,> 100000,–,–,–
"Cc1cccc2c(-c3cccc(Br)c3)c(C(=O)O)[nH]c12 [Example 18, 3-(3-bromophenyl)-7-methyl-1H-indole-2-carboxylic acid]",50.1,20,2000,–,–,–
"Cc1cccc2c(-c3ccc4[nH]ncc4c3)c(C(=O)O)[nH]c12 [Example 19, 3-(1H-indazol-5-yl)-7-methyl-1H-indole-2-carboxylic acid]",100,31.6,5010,–,–,–
"COc1ccccc1-c1c(C(=O)O)[nH]c2c(C)cccc12 [Example 20, 3-(2-methoxyphenyl)-7-methyl-1H-indole-2-carboxylic acid]",200,126,79400,–,–,–
"Cc1cccc2c(-c3ccn4ncnc4c3)c(C(=O)O)[nH]c12 [Example 21, 3-([1,2,4]triazolo[1,5-a]pyridin-7-yl)-7-methyl-1H-indole-2-carboxylic acid]",126,126,> 100000,–,–,–
"Cc1cccc2c(-c3cncnc3)c(C(=O)O)[nH]c12 [Example 22, 7-methyl-3-(pyrimidin-5-yl)-1H-indole-2-carboxylic acid]",1260,126,> 100000,–,–,–
"Cc1cccc2c(-c3ccc(N)cc3)c(C(=O)O)[nH]c12 [Example 23, 3-(4-aminophenyl)-7-methyl-1H-indole-2-carboxylic acid]",1000,31.6,7940,–,–,–
"Cc1cccc2c(-c3cccnc3)c(C(=O)O)[nH]c12 [Example 24, 7-methyl-3-(pyridin-3-yl)-1H-indole-2-carboxylic acid]",631,100,12600,–,–,–
"Cc1cccc2c(C3=CCN(C(=O)OC(C)(C)C)CC3)c(C(=O)O)[nH]c12 [Example 25, 3-(1-(tert-butoxycarbonyl)-1,2,3,6-tetrahydropyridin-4-yl)-7-methyl-1H-indole-2-carboxylic acid]",2000,31.6,5010,–,–,–
"Cc1cccc2c(-c3cnn(C)c3)c(C(=O)O)[nH]c12 [Example 26, 7-methyl-3-(1-methyl-1H-pyrazol-4-yl)-1H-indole-2-carboxylic acid]",2510,100,39800,–,–,–
"Cc1cccc2c(-c3ccccc3C#N)c(C(=O)O)[nH]c12 [Example 28, 3-(2-cyanophenyl)-7-methyl-1H-indole-2-carboxylic acid]",316,63.1,25100,–,–,–
"Cc1cccc2c(-c3ccc(S(=O)(=O)N(C)C)cc3)c(C(=O)O)[nH]c12 [Example 29, 3-(4-(N,N-dimethylsulfamoyl)phenyl)-7-methyl-1H-indole-2-carboxylic acid]",251,5.01,794,–,–,–
"CC(=O)Nc1ccc(-c2c(C(=O)O)[nH]c3c(C)cccc23)cc1 [Example 30, 3-(4-acetamidophenyl)-7-methyl-1H-indole-2-carboxylic acid]",158,20,2510,–,–,–
"Cc1cccc2c(-c3cccc4[nH]ncc34)c(C(=O)O)[nH]c12 [Example 31, 3-(1H-indazol-4-yl)-7-methyl-1H-indole-2-carboxylic acid]",39.8,63.1,63100,–,–,–
"Cc1cccc2c(-c3ccc4cn[nH]c4c3)c(C(=O)O)[nH]c12 [Example 32, 3-(1H-indazol-6-yl)-7-methyl-1H-indole-2-carboxylic acid]",79.4,25.1,12600,–,–,–
"Cc1cccc2c(C3=CCNCC3)c(C(=O)O)[nH]c12 [Example 36, 7-methyl-3-(1,2,3,6-tetrahydropyridin-4-yl)-1H-indole-2-carboxylic acid]",–,–,–,39800,398,> 100000
